Patent US5336763A, “Trisazo dye and dye composition containing the same” (Orient Chemical Industries, Ltd., priority 1992, dated 1994)
Where two headings read alike, the source gives them in different places.

Tested on: strains TA98
Assay type: cell-based
Details: for AMES evaluation: strains TA98
Description: Regarding various specimen solutions respectively containing trisazo dyes obtained in Examples 1 to 11 to the present invention and dyes of Comparative Examples 1 to 3, the number of mutant colonies was determined using strains TA98. 2. When the ratio is less than 2, it is "negative" and, when the ratio is more than 2, it is "positive", and the results are shown in Table. 1.

SMILES | Ames test: ratio of number of colonies to control (20 μg/plate, with S-9) | Ames test: ratio of number of colonies to control (20 μg/plate, without S-9) | Ames test: ratio of number of colonies to control (78 μg/plate, with S-9) | Ames test: ratio of number of colonies to control (78 μg/plate, without S-9) | Ames test: ratio of number of colonies to control (313 μg/plate, with S-9) | Ames test: ratio of number of colonies to control (313 μg/plate, without S-9) | Ames test: ratio of number of colonies to control (1250 μg/plate, with S-9) | Ames test: ratio of number of colonies to control (1250 μg/plate, without S-9) | Ames test: ratio of number of colonies to control (5000 μg/plate, with S-9) | Ames test: ratio of number of colonies to control (5000 μg/plate, without S-9) | AMES evaluation
Nc1ccc(N=Nc2ccc(Oc3cccc(Oc4ccc(N=Nc5c(S(=O)(=O)O)cc6cc(S(=O)(=O)O)c(N=Nc7ccccc7)c(O)c6c5N)cc4)c3)cc2)c(O)c1 [Ex. 1] | 1.13 | 0.76 | 0.94 | 0.86 | 1.06 | 0.86 | 0.53 | 0.76 | 0.59 | 0.71 | Negative (When the ratio is less than 2, it is "negative")
Nc1c(N=Nc2ccc(Oc3cccc(Oc4ccc(N=Nc5ccc(O)cc5O)cc4)c3)cc2)c(S(=O)(=O)O)cc2cc(S(=O)(=O)O)c(N=Nc3ccccc3)c(O)c12 [Ex. 2] | 1.34 | 1.07 | 1.19 | 1.20 | 1.39 | 1.02 | 1.28 | 1.16 | 1.27 | 1.28 | Negative (When the ratio is less than 2, it is "negative")
CCC(C)c1ccc(N=Nc2c(S(=O)(=O)O)cc3cc(S(=O)(=O)O)c(N=Nc4ccc(Oc5cccc(Oc6ccc(N=Nc7ccc(O)cc7O)cc6)c5)cc4)c(N)c3c2O)cc1 (stereo not shown) [Ex. 3] | 1.32 | 0.76 | 1.79 | 0.86 | 1.59 | 0.86 | 0.76 | 1.10 | 0.56 | 0.95 | Negative (When the ratio is less than 2, it is "negative")
Nc1ccc(N=Nc2ccc(Oc3ccc(Oc4ccc(N=Nc5c(S(=O)(=O)O)cc6cc(S(=O)(=O)O)c(N=Nc7ccccc7)c(O)c6c5N)cc4)cc3)cc2)c(O)c1 [Ex. 4] | 1.04 | 0.88 | 1.23 | 0.79 | 0.99 | 0.96 | 0.88 | 1.15 | 0.90 | 0.92 | Negative (When the ratio is less than 2, it is "negative")
Nc1c(N=Nc2ccc(Oc3ccc(Oc4ccc(N=Nc5ccc(O)cc5O)cc4)cc3)cc2)c(S(=O)(=O)O)cc2cc(S(=O)(=O)O)c(N=Nc3ccccc3)c(O)c12 [Ex. 5] | 0.93 | 0.89 | 1.04 | 0.95 | 0.86 | 0.63 | 1.04 | 0.79 | 0.57 | 0.68 | Negative (When the ratio is less than 2, it is "negative")
CCC(C)c1ccc(N=Nc2c(S(=O)(=O)O)cc3cc(S(=O)(=O)O)c(N=Nc4ccc(Oc5ccc(Oc6ccc(N=Nc7ccc(O)cc7O)cc6)cc5)cc4)c(N)c3c2O)cc1 (stereo not shown) [Ex. 6] | 1.01 | 1.01 | 1.00 | 1.04 | 0.98 | 1.16 | 0.84 | 0.97 | 0.84 | 0.91 | Negative (When the ratio is less than 2, it is "negative")
Cc1ccccc1N=Nc1c(S(=O)(=O)O)cc2cc(S(=O)(=O)O)c(N=Nc3ccc(Oc4ccc(Oc5ccc(N=Nc6ccc(O)cc6O)cc5)cc4)cc3)c(N)c2c1O [Ex. 7] | 0.94 | 0.95 | 0.89 | 1.00 | 1.00 | 0.80 | 1.05 | 0.80 | 1.05 | 1.00 | Negative (When the ratio is less than 2, it is "negative")
Nc1ccc(N=Nc2ccc(Oc3ccc(Oc4ccc(N=Nc5c(S(=O)(=O)O)cc6cc(S(=O)(=O)O)c(N=Nc7ccc(S(=O)(=O)O)cc7)c(O)c6c5N)cc4)cc3)cc2)c(O)c1 [Ex. 8] | 0.94 | 1.05 | 0.92 | 1.08 | 0.92 | 0.93 | 0.93 | 1.03 | 1.03 | 1.12 | Negative (When the ratio is less than 2, it is "negative")
Nc1ccc(N=Nc2ccc(Oc3cccc(Oc4ccc(N=Nc5cc(S(=O)(=O)O)c6cc(S(=O)(=O)O)c(N=Nc7ccccc7)c(O)c6c5N)cc4)c3)cc2)c(O)c1 [Ex. 9] | 1.05 | 0.85 | 1.00 | 0.65 | 1.16 | 0.75 | 1.00 | 0.60 | 0.53 | 1.15 | Negative (When the ratio is less than 2, it is "negative")
Nc1c(N=Nc2ccc(Oc3ccc(Oc4ccc(N=Nc5ccc(O)cc5O)cc4)cc3)cc2)cc(S(=O)(=O)O)c2ccc(N=Nc3ccccc3)c(O)c12 [Ex. 10] | 0.91 | 1.03 | 0.92 | 1.01 | 0.85 | 0.84 | 1.09 | 1.02 | 0.90 | 0.97 | Negative (When the ratio is less than 2, it is "negative")
Nc1ccc2c(O)c(N=Nc3ccccc3)c(S(=O)(=O)O)cc2c1N=Nc1ccc(Oc2ccc(Oc3ccc(N=Nc4ccc(O)cc4O)cc3)cc2)cc1 [Ex. 11] | 1.25 | 0.96 | 1.64 | 1.00 | 1.34 | 0.81 | 0.64 | 1.04 | 1.07 | 1.35 | Negative (When the ratio is less than 2, it is "negative")
